Data on 1 compound can be found in patent US20160015670A1, “COMPOUND, 1-PALMITIN-2-LINOLEIN-3-OLEIN, AND PHARMACEUTICAL PREPARATION AND USE THEREOF” (priority 2014, published 2016).

Holding throughout (assay): MTT method in vitro, inhibition of cell growth
Holding throughout (assay type): cell-based

Assay [1] deals with SMMC-7721 (human liver cancer cells). The following applies: SMMC-7721, MTT, 48 h. The text has this: (§1) (1) Cell lines: PANC-1 (human pancreatic cancer cells), SKOV3 (human ovarian cancer cells), MCF-7 (human breast cancer cells), SMMC-7721 (human liver cancer cells), A549 (human lung cancer cells), BGC-823 (human gastric cancer cells), COLO205 (human colonic cancer cells), storaged and passaged maintainably in Research and Evaluation Center for Pharmacology, Shanghai Institute of Pharmaceutical Industry;
(§2) The inhibition effects of the compound of formula (I) on the above-mentioned cell lines were detected by using MTT method. The specific procedures were as follows:
(§3) (1) Cell culture: (a) Storaged cells were taken out from the liquid nitrogen, thawed quickly in a 37 water bath, then aseptically transferred into 6 ml of cellular medium in a 10 ml centrifugal tube, centrifuged at 1000 rpm for 5 min. The supernatant was discarded, then the precipitated cells were re-suspended in 5-6 ml cellular media by pipetting and transferred into a flask in a 37 incubator for cell culture; (b) Next day, the flask was taken out from the incubator and the used medium was discarded, then the cells were incubated in 5-6 ml fresh medium in the 37 incubator; (c) On the third day, the flask was taken out from the incubator and the used medium was discarded, then 2-3 ml of PBS (pH7.4) was added into the flask with rocking for cleaning it and the used PBS was discarded. Such a cellular cleaning step was repeated once again. 3-5 drops of 0.25% trypsin solution were added into the flask with sloshing, thus well-distributed in it. The flask was capped and placed in a 37 incubator for about 3 min, and the separation of cells from the flask wall was observed under the microscope. 2 ml of cellular medium was added and cells were separated completely from the flask wall by pipetting, then the cell suspension was transferred into 2 separate clean flasks, each containing 5-6 ml medium. The cell suspension was well-distributed by pipetting, then the flask was placed in a 37 incubator. (d) Step (c) was repeated every other day. […]
(§4) (4) Cells in a logarithmic growth stage were trypsinized and washed, then re-suspended in the medium containing 10% calf serum. The number of living cells was counted in Trypan blue dye exclusion method and cell suspensions were adjusted into a density of 2×10^5 cell/ml. […]
(§5) (7) 100 μl of crystal dissolving solution was added into each well and cells were incubated continuously in the incubator overnight, so as to dissolve the resulted formazan crystals sufficiently. Then, the absorbance value was measured at 570 nm for each well.
(§6) (8) Based on absorbance values, inhibition rates on the cell growth were calculated for sample groups of various concentrations. […]
(§7) (1−mean absorbance of experimental wells/mean absorbance of control wells)×100%

Assay [2] deals with BGC-823 (human gastric cancer cells). Conditions: BGC-823, MTT, 48 h.
Description: as §1, §2, §3, §4, §5, §6, §7

Assay [3] has as its system PANC-1 (human pancreatic cancer cells). Conditions: PANC-1, MTT, 48 h.
Description: as §1, §2, §3, §4, §5, §6, §7

The subject of assay [4] is COLO205 (human colonic cancer cells). The following applies: COLO 205, 48 h.
Description: as §1, §2, §3, §4, §5, §6, §7

Molecules are shown by their SMILES. ≈ marks a conversion by molar mass, not a printed value.

Broadly, the IC50 is the concentration needed to halve the response being measured. For `CC(=O)O[C@H]1C(=O)[C@@]2(C)[C@H]([C@H](OC(=O)c3ccccc3)[C@]3(O)C[C@H](OC(=O)[C@H](O)[C@@H](NC(=O)c4ccccc4)c4ccccc4)C(C)=C1C3(C)C)[C@]1(OC(C)=O)CO[C@@H]1C[C@@H]2O` [Taxol, reference compound], the IC50 turned out to be 0.12 µg/mL (≈ 0.141 µM) in assay [1], 0.24 µg/mL (≈ 0.281 µM) in assay [2], 0.44 µg/mL (≈ 0.515 µM) in assay [3] and 0.75 µg/mL (≈ 0.878 µM) in assay [4].
